Assay results reported in US10647665B2, “Biaryl urea derivative or salt thereof and preparation process and use for the same” (Fudan University, priority 2016, dated 2020).

Columns and labels:
[1] = target: RORγ receptor (B-RORγ LBD) (Homo sapiens (Human), UniProt P51449); assay: Inhibitory activity on RORγ receptor in vitro by fluorescence resonance energy transfer (FRET); type: biochemical; details: average of at least two independent tests
Description: The inhibitory activity of compounds on RORγ receptor was determined by fluorescence resonance energy transfer (FRET) experiments. The inhibitory activity was expressed by half-inhibitory concentration (IC50).
1. Preparation of RORγ Buffer Solution
10 mL of DTT and 100 mL buffer solution were gently mixed together and ready to use.
2. Preparation of Compound Solution
(§1) 3. Preparation of Protein Mixture a. 40 nM B-RORγ LBD solution and 20 nM SA-APC solution were gently mixed together. The reaction mixture was incubated for 15 minutes at room temperature. Then 400 nM Biotin was added to the described above mixture. After gently mixed together, the resulting mixture was incubated for 10 minutes at room temperature. […]
as §1, with “b.” for “3. Preparation of Protein Mixture a.”, “Bioin-SRC1” for “B-RORγ LBD”, “10” for “20”, “SA-eu” for “SA-APC”, “together, and the” for “together. The”, “200” for “400”
d. A mixture of 0.1 μM alternative agonist
N-(2-chloro-6-fluorophenyl)-N-((20-methoxy-[1,10-biphenylyl]-4-substituted)methyl)benzenesulfonamide, 25 μL B-RORγ LBD/SA-APC and Bioin-SRC1/SA-eu mixture solution with test compound were added to one of the well of a 384-well plate, then they were centrifuged for 1 minute at 1000 rpm, and incubated at room temperature for 1 hour. The values were read on the Envision microplate detector and IC50 was calculated.

[2] = test system: Mouse Th17 cell differentiation; assay: Inhibition of mouse Th17 cell differentiation (IL-17 by intracellular staining and flow cytometry); type: cell-based; details: compound at 0.3 μM, mouse spleen CD4+ T cells, 96 hours
Description: Experimental method: Mouse spleen CD4^+ T cells were isolated and differentiated into Th17 cells. CD4^+ T cells were cultured in the environment of anti-CD3 (0.25 μg/mL), anti-CD28 (1 μg/mL), anti-IL4 (2 μg/mL), anti-IFN-γ (2 μg/mL), TGF-β (5 ng/mL), and IL6 (20 ng/mL), and then the test compound was added. After 96 hours, the differentiation efficiency of Th17 was analyzed. Before collection of cells, PMA at 50 ng/mL and ionomycin at 500 ng/mL were added for stimulation for 4 hours, and the ratio of IL-17 was detected by intracellular staining and flow cytometry. At the same time, we used Live/Dead Cell Dye (Invitrogen) staining method to analyze the cell survival rate, to judge whether the drug had toxicity to cells, and determine the inhibition rate of the compound at a concentration of 0.3 μM on IL-17 differentiation by Th 17 cells.

Sequence of RORγ receptor (B-RORγ LBD) (P51449 269-508): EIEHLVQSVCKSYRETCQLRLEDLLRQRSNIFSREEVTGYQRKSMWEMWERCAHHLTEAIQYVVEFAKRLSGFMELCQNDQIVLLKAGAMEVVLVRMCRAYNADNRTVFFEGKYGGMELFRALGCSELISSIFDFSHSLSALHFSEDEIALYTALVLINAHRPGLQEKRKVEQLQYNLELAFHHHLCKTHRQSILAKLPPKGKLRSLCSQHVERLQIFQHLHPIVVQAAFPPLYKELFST

| IC50 [1] | SMILES | inhibition at 0.3 µM [2] |
| --- | --- | --- |
| < 500 nM | CS(=O)(=O)c1ccc(CNC(=O)Nc2cc(Cl)c(-c3ccccc3OC(F)(F)F)c(Cl)c2)cc1 [Example 1-4, 1-(2,6-dichloro-2′-(trifluoromethoxy)-[1,1′-biphenyl]-4-yl)-3-(4-(methylsulfonyl)benzyl)urea] | 40 to 70% |
| < 500 nM | CC(=O)NS(=O)(=O)c1ccc(CNC(=O)Nc2cc(Cl)c(-c3ccccc3OC(F)(F)F)c(Cl)c2)cc1 [Example 1-7, N-((4-((3-(2,6-dichloro-2′-(trifluoromethoxy)-[1,1′-biphen-1,1′-biphenyl]-4-yl)ureido)methyl)phenyl)sulfonyl)acetamide] | 0 to 40% |
| < 500 nM | O=C(O)Cc1ccc(CNC(=O)Nc2cc(Cl)c(-c3ccccc3OC(F)F)c(Cl)c2)cc1 [Example 1-20, 2-(4-((3-(2,6-dichloro-2′-(difluoromethoxy)-[1,1′-biphenyl]-4-yl)ureido)methyl)phenyl)acetic acid] | 0 to 40% |
| 500 to 5000 nM | CCS(=O)(=O)c1ccc(CNC(=O)Nc2ccc(-c3ccccc3OC(F)(F)F)c(Cl)c2)cc1 [Example 1-3, 1-(2-chloro-2′-(trifluoromethoxy)-[1,1′-biphenyl]-4-yl)-3-(4-(ethylsulfonyl)benzyl)urea] | 40 to 70% |
